Reference: article PMC9635468, “Biological evaluation, docking studies, and in silico ADME prediction of some pyrimidine and pyridine derivatives as potential EGFR^WT and EGFR^T790M inhibitors” (Journal of Enzyme Inhibition and Medicinal Chemistry, 2022)
Values after ≈ are worked out from the molar mass of the structure shown.

How the values were obtained:
HCT116 = test: Cytotoxicity screening, SRB assay, HCT116; format: cell-based, human; conditions: for IC50: Homo sapiens, HCT-116, 48 h
Protocol: (§1) In this study, a panel of cell lines was examined for their chemosensitivity. Different concentrations of the synthesised pyridines and pyrimidine derivatives were used in this study (5, 12.5, 25, and 50 µg/mL) for all the examined cell lines. In this study, breast tumour cell line (MCF7), hepatocellular carcinoma cell line (HEPG2), larynx cell line (HEP2), lung cancer cell line (H460), colon cancer cell line (HCT116 and Caco2), hypopharyngeal cell line (FADU), and normal Vero cell line were applied. The full methodology is described in the Supplementary data (SI 1).
(§2) SI 1: Cytotoxicity screening against human cancer cell lines
(§3) In this study, a panel of cell lines was examined for their chemosensitivity. Different concentrations of the synthesized pyridines and pyrimidines derivatives were used in this study (5, 12.5, 25, and 50 µg/ml) for all the examined cell lines. The most sensitive cell line to the treatment regimen was selected and subjected to further investigations to explore the mechanism of this interaction. Human breast tumor cell line (MCF7), human hepatocellular carcinoma cell line (HEPG2), human larynx cell line (HEP2), human lung cancer cell line (H460), human colon cancer cell line (HCT116 and Caco2), human hypopharyngeal cell line (FaDu), and normal cell line Vero were used in this study. It was obtained from the American Type Culture Collection (ATCC, Minnesota, USA). The tumor cell line was maintained at National Cancer Institute (NCI), Cairo, Egypt.
(§4) The antitumor activities of pyridines and pyrimidines derivatives and all tested cell lines were evaluated by sulphorhodamine-B (SRB) assay 1. Briefly, cells were seeded at a density of 3 × 10^3 cells/well in 96-well microtiter plates. They were left to attach for 24 h before incubation with drugs. Next, cells were treated with different concentrations of 5, 12.5, 25, and 50 µg/ml for MCF7, HEPG2, HEP2, HCT116, Caco2, H460, FaDu, and Vero cells. For each concentration, three wells were used and incubation was continued for 48 h. DMSO was used as a control vehicle (1 % v/v). At the end of incubation, cells were fixed with 20 % trichloroacetic acid and stained with 0.4 % SRB dye. The optical density (O.D.) of each well was measured spectrophotometrically at 570 nm using an ELISA microplate reader (TECAN sunrise™, Germany). The mean survival fraction at each drug concentration was calculated as follows: […]
(§5) O.D. of the treated cells/O.D. of the control cells. The IC50 (concentration that produces 50% of cell growth inhibition) value of each drug was calculated using sigmoidal dose-response curve-fitting models (Graph Pad Prizm software, version 5) 1.

VERO = test: Cytotoxicity screening, SRB assay, normal Vero cells; format: cell-based; conditions: 48 h, normal cell line; for IC50: Chlorocebus sabaeus, Vero
Protocol: as §1, §2, §3, §4, §5

FADU = test: Cytotoxicity screening, SRB assay, FADU; format: cell-based, human; conditions: 48 h; for IC50: Homo sapiens, FaDu
Protocol: as §1, §2, §3, §4, §5

HEPG2 = test: Cytotoxicity screening, SRB assay, HEPG2; format: cell-based, human; conditions: for IC50: Homo sapiens, HepG2, 48 h
Protocol: as §1, §2, §3, §4, §5

HEP2 = test: Cytotoxicity screening, SRB assay, HEP2; format: cell-based, human; conditions: for IC50: Homo sapiens, HEp-2, 48 h
Protocol: as §1, §2, §3, §4, §5

H460 = test: Cytotoxicity screening, SRB assay, H460; format: cell-based, human; conditions: for IC50: Homo sapiens, NCI-H460, 48 h
Protocol: as §1, §2, §3, §4, §5

T47D = test: Cytotoxicity screening, SRB assay, T47D; format: cell-based, human; conditions: 48 h; for IC50: Homo sapiens, T47D
CaCo2 = test: Cytotoxicity screening, SRB assay, CaCo2; format: cell-based, human; conditions: for IC50: Homo sapiens, Caco-2, 48 h
Protocol: as §1, §2, §3, §4, §5

MCF7 = test: Cytotoxicity screening, SRB assay, MCF7; format: cell-based, human; conditions: for IC50: Homo sapiens, MCF7, 48 h
Protocol: as §1, §2, §3, §4, §5

PI3Kd = tested on: PI3Kd; parameters: method as in PMID 29631787; conditions: inhibitory potential against PI3Kd; cited from earlier work
NF-kB = tested on: NF-kB; parameters: method as in PMID 25108361; conditions: inhibitory potential against NF-kB; cited from earlier work

| Structure (SMILES) | IC50 (HCT116) [µg/mL] | IC50 (VERO) [µg/mL] | IC50 (FADU) [µg/mL] | IC50 (HEPG2) [µg/mL] | IC50 (HEP2) [µg/mL] | IC50 (H460) [µg/mL] | IC50 (T47D) [µg/mL] | IC50 (CaCo2) [µg/mL] | IC50 (MCF7) [µg/mL] | also measured |
| --- | --- | --- | --- | --- | --- | --- | --- | --- | --- | --- |
| Nc1nn2c(-c3cccs3)cc(-c3ccco3)nc2c1/N=N/c1ccc([N+](=O)[O-])cc1 [Compound 7] | 15 (≈ 34.8 µM) | 12 (≈ 27.8 µM) | 8.3 (≈ 19.2 µM) | 12 (≈ 27.8 µM) | 35.2 (≈ 81.6 µM) | 3.7 (≈ 8.58 µM) | 44.5 (≈ 103 µM) | 21.5 (≈ 49.8 µM) | 13.7 (≈ 31.8 µM) |  |
| c1coc(-c2cc(-c3cccs3)n3cnnc3n2)c1 [Compound 9] | 24.3 (≈ 90.6 µM) | 32.5 (≈ 121 µM) | 19.6 (≈ 73.1 µM) | 18.5 (≈ 69 µM) | 14.7 (≈ 54.8 µM) | 43.2 (≈ 161 µM) | 11.5 (≈ 42.9 µM) | 23.5 (≈ 87.6 µM) | 17.2 (≈ 64.1 µM) |  |
| c1coc(-c2cc(-c3cccs3)n3nnnc3n2)c1 [Compound 10] | 33.3 (≈ 124 µM) | 28.5 (≈ 106 µM) | 4.5 (≈ 16.7 µM) | 7.3 (≈ 27.1 µM) | 22.8 (≈ 84.7 µM) | 2.9 (≈ 10.8 µM) | 18.2 (≈ 67.6 µM) |  | 18.7 (≈ 69.4 µM) |  |
| C1=C(c2ccco2)n2c(nc3ccccc32)SC1c1cccs1 (centres unmarked) [Compound 11] | 42 (≈ 125 µM) | 24 (≈ 71.3 µM) | 18.2 (≈ 54.1 µM) | 18.5 (≈ 55 µM) | 19.5 (≈ 58 µM) | 4.3 (≈ 12.8 µM) | 19.5 (≈ 58 µM) | 24.8 (≈ 73.7 µM) | 15.9 (≈ 47.3 µM) |  |
| N#Cc1c(-c2cccs2)cc(-c2ccco2)nc1-c1c[nH]c2ccccc12 [Compound 13] | 44.3 (≈ 121 µM) |  | 15.9 (≈ 43.3 µM) | 8.6 (≈ 23.4 µM) | 4.8 (≈ 13.1 µM) |  | 21 (≈ 57.2 µM) |  | 7.8 (≈ 21.2 µM) |  |
| N#Cc1c(-c2cccs2)cc(-c2ccco2)nc1Cl [Compound 15] | 22 (≈ 76.7 µM) | 21.5 (≈ 75 µM) | 17.5 (≈ 61 µM) | 12 (≈ 41.8 µM) | 36.8 (≈ 128 µM) | 21 (≈ 73.2 µM) | 49.4 (≈ 172 µM) | 23.5 (≈ 82 µM) | 14.7 (≈ 51.3 µM) |  |
| Clc1nc(-c2ccco2)cc(-c2cccs2)c1-c1nnn[nH]1 [Compound 16] | 27 (≈ 81.9 µM) | 4.5 (≈ 13.6 µM) | 9 (≈ 27.3 µM) | 9.7 (≈ 29.4 µM) | 31 (≈ 94 µM) | 19.4 (≈ 58.8 µM) | 8.9 (≈ 27 µM) | 18.2 (≈ 55.2 µM) | 21 (≈ 63.7 µM) |  |
| N#Cc1c(-c2cccs2)cc(-c2ccco2)nc1NN [Compound 17] | 19.3 (≈ 68.4 µM) | 16.5 (≈ 58.4 µM) | 10.5 (≈ 37.2 µM) | 4.9 (≈ 17.4 µM) | 24 (≈ 85 µM) | 12.7 (≈ 45 µM) | 4.9 (≈ 17.4 µM) | 24 (≈ 85 µM) | 34 (≈ 120 µM) |  |
| CCOC(=O)COc1nc(-c2ccco2)cc(-c2cccs2)c1C#N [Compound 18] | 36.7 (≈ 104 µM) | 24.5 (≈ 69.1 µM) | 22 (≈ 62.1 µM) | 9 (≈ 25.4 µM) | 23 (≈ 64.9 µM) | 25 (≈ 70.5 µM) | 25.5 (≈ 72 µM) | 23.5 (≈ 66.3 µM) | 21.5 (≈ 60.7 µM) |  |
| N#Cc1c(-c2cccs2)cc(-c2ccco2)nc1OCC(=O)NN [Compound 19] |  | 36 (≈ 106 µM) | 20.5 (≈ 60.2 µM) | 24.2 (≈ 71.1 µM) | 43.5 (≈ 128 µM) | 41.5 (≈ 122 µM) | 32 (≈ 94 µM) | 10.8 (≈ 31.7 µM) | 39.5 (≈ 116 µM) |  |
| N#Cc1c(-c2cccs2)cc(-c2ccco2)nc1OCC(=O)N/N=C/c1ccc([N+](=O)[O-])cc1 [Compound 20] | 24.7 (≈ 52.2 µM) | 10.5 (≈ 22.2 µM) | 8.5 (≈ 18 µM) | 11.5 (≈ 24.3 µM) | 31 (≈ 65.5 µM) | 11.3 (≈ 23.9 µM) | 49.5 (≈ 105 µM) | 41.5 (≈ 87.7 µM) | 12.2 (≈ 25.8 µM) |  |
| N#Cc1c(-c2cccs2)cc(-c2ccco2)nc1OCC(=O)N/N=C1/C(=O)Nc2ccccc21 [Compound 21] |  | 38.2 (≈ 81.4 µM) | 10.9 (≈ 23.2 µM) | 5 (≈ 10.7 µM) | 19.8 (≈ 42.2 µM) | 23.3 (≈ 49.6 µM) | 17 (≈ 36.2 µM) | 34 (≈ 72.4 µM) | 9.5 (≈ 20.2 µM) |  |
| COc1ncc(-c2cc(O[C@@H]3CCN(C(=O)C4CCOCC4)C3)c3cnn(C)c3n2)cc1NS(C)(=O)=O [Compound II] |  |  |  |  |  |  |  |  |  | IC50 (PI3Kd): 0.0053 µM |
| CC1Cc2cnc3[nH]nc(N)c3c2-c2ccccc21 (centres unmarked) [Compound IV] |  |  |  |  |  |  |  |  |  | IC50 (NF-kB): 4.7 µM |
| COc1ncc(-c2cc(NC(=O)c3coc(CN4CCN(C(C)C)CC4)n3)c3cnn(C)c3n2)cc1NS(C)(=O)=O [Compound I] |  |  |  |  |  |  |  |  |  | IC50 (PI3Kd): 0.0084 µM |
| Cc1cnc2[nH]nc(N)c2c1-c1ccccc1 [Compound VI] |  |  |  |  |  |  |  |  |  | IC50 (NF-kB): 39.8 µM |
| Nc1n[nH]c2ncc3c(c12)-c1ccccc1CC3 [Compound V] |  |  |  |  |  |  |  |  |  | IC50 (NF-kB): 6.9 µM |
| COc1cccc2c1C(=O)c1c(O)c3c(c(O)c1C2=O)C[C@@](O)(C(=O)CO)C[C@@H]3O[C@H]1C[C@H](N)[C@H](O)[C@H](C)O1 [DOX, reference compound] |  |  |  |  |  |  |  |  |  | HCT116 IC50 (HCT116; 48 h): 5.50 µg/mL; VERO IC50 (VERO): 23.00 µg/mL; FADU IC50 (FADU): 7.00 µg/mL; HEPG2 IC50 (HEPG2; 48 h): 4.58 µg/mL; HEP2 IC50 (HEP2; 48 h): 5.60 µg/mL; H460 IC50 (H460; 48 h): 6.50 µg/mL; T47D IC50 (T47D): 4.00 µg/mL; CaCo2 IC50 (CaCo2; 48 h): 6.00 µg/mL; MCF7 IC50 (MCF7; 48 h): 4.50 µg/mL |
